In patent US20220047569A1, “METHOD AND COMPOUND FOR USE, IN TREATING AND/OR PREVENTING NETOSIS” (Jubilant EpiPad LLC, priority 2020, published 2022) one finds IC50 data, which are given here for 20 molecules.

Structures can show the parent of a compound that is named as a salt.

This assay has as its system Histone H3 Citrullination in Neutrophils. Put plainly: Citrullination ELISA (Citrullinated Histone H3) in calcium ionophore stimulated neutrophils. Format: cell-based. The conditions noted are these: Neutrophil; human neutrophils, 25 μM calcium ionophore, CitH3 ELISA. Here is the method:
Neutrophils were isolated according to the EasySep Direct Human Neutrophil Isolation Kit. In short, 50 mL of blood sample was drawn in a vacutainer containing K2EDTA from a healthy donor. To the whole blood, the isolation cocktail of 50 μL/mL was added. Then, in the next step 50 μL/mL of RapidSpheres™ was added to the sample. The sample was mixed evenly with the pipette and incubated for 10 minutes at room temperature. After incubation, PBS containing 1 mM EDTA was added at the ratio of 1:1 to the blood. Then the sample tube was incubated for 10 minutes. The enriched cell suspension was transferred into a new tube and RapidSpheres™ were added at 50 μL/mL to this suspension, mixed and incubated for 10 minutes at room temperature. At this step, the enriched cell suspension was carefully collected as a clear fraction into a fresh tube. Then, previous tube was replaced with the fresh tube containing enriched cell suspension. After the final separation, the clear solution of enriched cell suspension was carefully transferred to fresh tube which was ready to use for the experiment. These cells were then subjected to wash twice with plain RPMI 1640 media without Fetal Bovine Serum (FBS) and centrifuged at 1500 rpm for 5 minutes at room temperature. Cell counts were performed on each sample by Invitrogen cell counter. After the cell count, cell density was adjusted according to the experiment and re-suspended in complete RPMI media containing RPMI1640, 2% BSA and 1 mM CaCl2.
Freshly isolated neutrophils from human donor were seeded at a density of 0.5×10^6 cells in 400 μL cell suspension/well in a 24-well plate and cells were pre-incubated with the compound for 30 minutes by adding 50 μL of the 10× concentration to achieve the final 1× concentration of compound (10 μM, 1 μM and 0.1 μM). 1% DMSO was added in control wells. Then, the cells were stimulated in the presence and absence of calcium ionophore by adding 50 μL/well to achieve the final concentration of 25 μM. Upon incubation for 30 minutes with calcium ionophore, S7 nuclease was added to the wells and incubated for 10 minutes to disrupt NET DNA. Following incubation, 10 μL of 1 mM EDTA was added to inactivate nuclease. Cells were scrapped gently and transferred to the tubes, followed by centrifugation at 1500 rpm for 5 minutes. After centrifugation, supernatant was discarded, and 200 μL of lysis buffer containing PBS and 1× Protease inhibitor was added to the tubes. The obtained lysis was then subjected to mechanical shearing using Geno grinder by spin the plate at 2500 rpm for 10 minutes, followed by collection of supernatant and stored at −20° C. or immediately used for ELISA.
ELISA was performed as per Citrullinated Histone H3 ELISA Kit. All the buffer components from the kit were dissolved according to the manufactures protocol. ELISA Buffer Concentrate (10×) (Item No. 400060) and Wash Buffer Concentrate (400×) (Item No. 400060) along with polysorbate 20 (2000×) (Item No. 400035) was diluted to 1× with milliQ water. The standard for use in the ELISA was prepared as follows: • Obtain eight clean test tubes and label them, #1 through #8. Aliquot 4.9 mL of ELISA Buffer into tube #1. • Aliquot 500 μL of ELISA Buffer into the tubes #2-8. […] This tube is considered as blank, the lowest point on the standard curve.
100 μL of standards or diluted sample was added to the appropriate wells on the 96-well plate. Plates were covered with 96-well cover sheet and incubated for two hours at room temperature on an orbital shaker. The samples and standard were removed from the wells and washed four times with Wash Buffer. After the last wash, Anti-Histone H3 HRP Conjugate (Item No. 501441) (10×) stock solution was diluted in 1×ELISA buffer and 100 μL of the HRP Conjugate working solution was added to each well of the plate and incubated for one hour at room temperature on an orbital shaker. […]
On to `Cc1c(-c2cc3ccccc3n2Cc2ncccc2F)nc2cc(C(=O)N3CCC[C@@H](N)C3)ccn12` [Compound 62, (R)-(3-aminopiperidin-1-yl)(2-(1-((3-fluoropyridin-2-yl)methyl)-1H-indol-2-yl)-3-methylimidazo[1,2-a]pyridin-7-yl)methanone], for which the IC50 was 0.1 to 1 µM.

As for `COc1ccc2cc(-c3nc4cc(C(=O)N5CCC[C@@H](N)C5)cc5c4n3CCO5)n(Cc3ccc(F)cc3)c2c1` [Compound 137, (R)-(3-aminopiperidin-1-yl)(2-(1-(4-fluorobenzyl)-6-methoxy-1H-indol-2-yl)-3,4-dihydro-5-oxa-1,2a-diazaacenaphthylen-7-yl)methanone], the IC50 was more than 1 µM.

As for `COc1cccc(Cn2c(-c3nc4cc(C(=O)N5CCC[C@@H](N)C5)ccn4c3C)cc3cc(F)ccc32)c1` [Compound 53, (R)-(3-aminopiperidin-1-yl)(2-(5-fluoro-1-(3-methoxybenzyl)-1H-indol-2-yl)-3-methylimidazo[1,2-a]pyridin-7-yl)methanone], the half-maximal inhibitory concentration (IC50) lay within 0.1 to 1 µM.

`Cc1c(-c2cc3ccccc3n2CC(F)F)nc2cc(C(=O)N3CCC[C@@H](N)C3)ccn12` [Compound 78, (R)-(3-aminopiperidin-1-yl)(2-(1-(2,2-difluoroethyl)-1H-indol-2-yl)-3-methylimidazo[1,2-a]pyridin-7-yl)methanone trifluoroacetic acid salt]: the IC50 is more than 1 µM.

As for `COc1ccc(Cn2c(-c3nc4cc(C(=O)N5CCC[C@@H](N)C5)cc5c4n3CCO5)cc3ccc(F)cc32)cc1` [Compound 136, (R)-(3-aminopiperidin-1-yl)(2-(6-fluoro-1-(4-methoxybenzyl)-1H-indol-2-yl)-3,4-dihydro-5-oxa-1,2a-diazaacenaphthylen-7-yl)methanone], the half-inhibitory concentration (IC50) was more than 1 µM.

Consider `N[C@@H]1CCCN(C(=S)c2cc3c4c(c2)nc(-c2cc5ccccc5n2CC2CC2)n4CCN3)C1` [Compound 172, (R)-(3-aminopiperidin-1-yl)(2-(1-(cyclopropylmethyl)-1H-indol-2-yl)-5,6-dihydro-4H-imidazo[1,5,4-de]quinoxalin-8-yl)methanethione], for which the IC50 was less than 0.1 µM.

On to `COc1ccc(Cn2c(-c3nc4cc(C(=O)N5CCC[C@@H](N)C5)cc5c4n3CCO5)cc3cc(F)ccc32)cc1` [Compound 132, (R)-(3-aminopiperidin-1-yl)(2-(5-fluoro-1-(4-methoxybenzyl)-1H-indol-2-yl)-3,4-dihydro-5-oxa-1,2a-diazaacenaphthylen-7-yl)methanone], for which the 50% inhibitory concentration (IC50) is more than 1 µM.

On to `COCCn1c(-c2nc3cc(C(=O)N4CCC[C@@H](N)C4)cc4c3n2CCO4)cc2ccccc21` [Compound 106, (R)-(3-aminopiperidin-1-yl)(2-(1-(2-methoxyethyl)-1H-indol-2-yl)-3,4-dihydro-5-oxa-1,2a-diazaacenaphthylen-7-yl)methanone], for which the IC50 lay within 0.1 to 1 µM.

`Cc1csc(Cn2c(-c3nc4cc(C(=O)N5CCC[C@@H](N)C5)ccn4c3C)cc3ccccc32)n1` [Compound 41, (R)-(3-aminopiperidin-1-yl)(3-methyl-2-(1-((4-methylthiazol-2-yl)methyl)-1H-indol-2-yl)imidazo[1,2-a]pyridin-7-yl)methanone]: the IC50 lay in the range of 0.1 to 1 µM.

Take `N[C@@H]1CCCN(C(=O)c2cc3c4c(c2)nc(-c2cc5ccccc5n2Cc2ccncc2F)n4CCO3)C1` [Compound 110, (R)-(3-aminopiperidin-1-yl)(2-(1-((3-fluoropyridin-4-yl)methyl)-1H-indol-2-yl)-3,4-dihydro-5-oxa-1,2a-diazaacenaphthylen-7-yl)methanone]: the IC50 was less than 0.1 µM.

Consider `N[C@@H]1CCCN(C(=O)c2cc3c4c(c2)nc(-c2cc5ccccc5n2Cc2cccnc2)n4CCO3)C1` [Compound 102, (R)-(3-aminopiperidin-1-yl)(2-(1-(pyridin-3-ylmethyl)-1H-indol-2-yl)-3,4-dihydro-5-oxa-1,2a-diazaacenaphthylen-7-yl)methanone], for which the IC50 is less than 0.1 µM.

As for `Cc1cccc2cc(-c3nc4cc(C(=O)N5CCC[C@@H](N)C5)cc5c4n3CCN5)n(CC3CC3)c12` [Compound 170, (R)-(3-aminopiperidin-1-yl)(2-(1-(cyclopropylmethyl)-7-methyl-1H-indol-2-yl)-5,6-dihydro-4H-imidazo[1,5,4-de]quinoxalin-8-yl)methanone], the IC50 was in the range of 0.1 to 1 µM.

For `N[C@@H]1CCCN(C(=O)c2cc3c4c(c2)nc(-c2cc5ccc(F)cc5n2CC2CC2)n4CCO3)C1` [Compound 114, (R)-(3-aminopiperidin-1-yl)(2-(1-(cyclopropylmethyl)-6-fluoro-1H-indol-2-yl)-3,4-dihydro-5-oxa-1,2a-diazaacenaphthylen-7-yl)methanone], the IC50 is less than 0.1 µM.

On to `N[C@@H]1CCCN(C(=O)c2cc3c4c(c2)nc(-c2cc5ccccc5n2CC2CC2)n4CCN3)C1` [Compound 149, (R)-(3-aminopiperidin-1-yl)(2-(1-(cyclopropylmethyl)-1H-indol-2-yl)-5,6-dihydro-4H-imidazo[1,5,4-de]quinoxalin-8-yl)methanone], for which the IC50 fell in the range of 0.1 to 1 µM.

Take `COc1ccc2cc(-c3nc4cc(C(=O)N5CCC[C@@H](N)C5)cc5c4n3CCO5)n(CC3CC3)c2c1` [Compound 109, (R)-(3-aminopiperidin-1-yl)(2-(1-(cyclopropylmethyl)-6-methoxy-1H-indol-2-yl)-3,4-dihydro-5-oxa-1,2a-diazaacenaphthylen-7-yl)methanone]: the half-maximal inhibitory concentration (IC50) was 0.1 to 1 µM.

Consider `N[C@@H]1CCCN(C(=O)c2cc3c4c(c2)nc(-c2cc5ccc(F)cc5n2Cc2ncccc2F)n4CCO3)C1` [Compound 121, (R)-(3-aminopiperidin-1-yl)(2-(6-fluoro-1-((3-fluoropyridin-2-yl)methyl)-1H-indol-2-yl)-3,4-dihydro-5-oxa-1,2a-diazaacenaphthylen-7-yl)methanone], for which the IC50 was more than 1 µM.

As to `Cc1c(-c2cc3ccc(F)cc3n2Cc2ccncc2)nc2cc(C(=O)N3CCC[C@@H](N)C3)ccn12` [Compound 68, (R)-(3-aminopiperidin-1-yl)(2-(6-fluoro-1-(pyridin-4-ylmethyl)-1H-indol-2-yl)-3-methylimidazo[1,2-a]pyridin-7-yl)methanone], the IC50 was less than 0.1 µM.

In the case of `N[C@@H]1CCCN(C(=O)c2cc3c4c(c2)nc(-c2cc5ccccc5n2CC2CCOCC2)n4CCO3)C1` [Compound 126, (R)-(3-aminopiperidin-1-yl)(2-(1-((tetrahydro-2H-pyran-4-yl)methyl)-1H-indol-2-yl)-3,4-dihydro-5-oxa-1,2a-diazaacenaphthylen-7-yl)methanone], the half-inhibitory concentration (IC50) was more than 1 µM.

With `Cc1c(-c2cc3ccccc3n2Cc2ccc(CO)cc2)nc2cc(C(=O)N3CCC[C@@H](N)C3)ccn12` [Compound 81, (R)-(3-aminopiperidin-1-yl)(2-(1-(4-(hydroxymethyl)benzyl)-1H-indol-2-yl)-3-methylimidazo[1,2-a]pyridin-7-yl)methanone], the 50% inhibitory concentration (IC50) is more than 1 µM.

In the case of `COc1ccc(Cn2c(-c3nc4cc(C(=O)N5CCC[C@@H](N)C5)ccn4c3C)cc3cc(F)ccc32)cc1` [Compound 75, (R)-(3-aminopiperidin-1-yl)(2-(5-fluoro-1-(4-methoxybenzyl)-1H-indol-2-yl)-3-methylimidazo[1,2-a]pyridin-7-yl)methanone], the IC50 is 0.1 to 1 µM.
